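Step 1: Grow cells in 96-well plates. Step 2: Expose to compound for 48 hours at 5 concentrations. Step 3: Interpolate endpoints linearly; if unreached, use highest concentration. Abbreviation: GI50, concentration required for 50% inhibition of growth. TGI marks complete inhibition of growth.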
How the values were obtained:
Experiment in all cases: DTP human tumour cell line panel, 48 h
786-0 renal = system: 786-0 renal
A498 renal = system: A498 renal
CCRF-CEM leukemia = system: CCRF-CEM leukemia
HCT-15 colon = system: HCT-15 colon
KM12 colon = system: KM12 colon
MDA-MB-231 breast = system: MDA-MB-231 breast
OVCAR-8 ovarian = system: OVCAR-8 ovarian
SK-MEL-28 melanoma = system: SK-MEL-28 melanoma
SK-OV-3 ovarian = system: SK-OV-3 ovarian
DU-145 prostate = system: DU-145 prostate

Compound | GI50 (786-0 renal) | TGI (786-0 renal) | GI50 (A498 renal) | TGI (A498 renal) | GI50 (CCRF-CEM leukemia) | TGI (CCRF-CEM leukemia) | GI50 (HCT-15 colon) | TGI (HCT-15 colon) | GI50 (KM12 colon) | TGI (KM12 colon) | GI50 (MDA-MB-231 breast) | TGI (MDA-MB-231 breast) | GI50 (OVCAR-8 ovarian) | TGI (OVCAR-8 ovarian) | GI50 (SK-MEL-28 melanoma) | TGI (SK-MEL-28 melanoma) | GI50 (SK-OV-3 ovarian) | TGI (SK-OV-3 ovarian) | GI50 (DU-145 prostate) | TGI (DU-145 prostate)
Cc1cc(N(CCNc2ccnc3cc(Cl)ccc23)Cc2ccc3c(c2)OCO3)nc(N2CCCC2)n1 | 1.33 µM | 2.85 µM | 1.61 µM | 3.94 µM | 1.57 µM | 9.09 µM | 1.22 µM | 3.18 µM | 2.7 µM | 11.5 µM | 1.28 µM | 3.27 µM | 1.91 µM | 5.01 µM | 1.68 µM | 3.2 µM | 2.63 µM | 8.15 µM |  | 
CN1CCN(c2nc(N)c(Br)c(Cl)n2)CC1 |  | > 100 µM |  |  |  | > 100 µM |  | > 100 µM |  | > 100 µM |  |  |  | > 100 µM |  | > 100 µM |  | > 100 µM |  | 
CCOC(=O)C1C(=O)CC(=O)C2CCCCC21 (configuration not stated) |  | > 100 µM |  | > 100 µM |  | > 100 µM |  | > 100 µM |  | > 100 µM |  |  |  | > 100 µM |  | > 100 µM |  | > 100 µM |  | 
CC(=O)OCC1OC(n2c(=S)n(-c3ccccc3)c(=O)c3cc(Br)ccc32)C(OC(C)=O)C1OC(C)=O (configuration not stated) |  | > 100 µM |  | > 100 µM |  |  |  | > 100 µM |  | > 100 µM |  |  |  | > 100 µM |  | > 100 µM |  | > 100 µM |  | 
N#CC1=C(N)OC2=C(CCOc3c2ccc2ccccc32)C1c1ccc(Br)cc1 (configuration not stated) | 44.9 µM | > 100 µM |  |  | 16.8 µM | 54.2 µM | 31 µM | > 100 µM | 14.6 µM | 34.3 µM |  |  | 77.5 µM | > 100 µM | 61.5 µM | > 100 µM | 28.8 µM | > 100 µM | > 100 µM | > 100 µM
CCCCOC(=O)NC(=O)c1cn(CCCOC(=O)CCCCCCCCC(=O)OCCCn2cc(C(=O)NC(=O)OCCCC)c(=O)n(C)c2=O)c(=O)n(C)c1=O |  | > 100 µM |  | > 100 µM |  | > 100 µM |  | > 100 µM |  | > 100 µM |  |  |  | > 100 µM |  | > 100 µM |  |  |  | 
CC12CCc3ccccc3C1=NNC(=O)C2 (configuration not stated) |  | > 100 µM |  | > 100 µM |  | > 100 µM |  | > 100 µM |  | > 100 µM |  |  |  | > 100 µM |  | > 100 µM |  | > 100 µM |  | 
COc1cc(O)c(C(=O)/C=C/c2ccc(OC)c(OCc3ccccc3)c2)c(OC)c1 |  | > 100 µM |  |  |  | > 100 µM |  | > 100 µM |  | > 100 µM |  |  |  | > 100 µM |  |  |  | > 100 µM |  | 
N#CC(/C(CCCC(=O)Nc1cccc([N+](=O)[O-])c1)=N\NC(=O)c1c(O)ccc2ccccc12)c1nc2ccccc2s1 (configuration not stated) |  | > 100 µM |  | > 100 µM |  | > 100 µM |  |  |  | > 100 µM |  |  |  | > 100 µM |  | > 100 µM |  | > 100 µM |  | 
O=C(CCc1ccccc1)CC1OC(=O)C(Cl)=C1Cl (configuration not stated) |  | 37.5 µM |  | 66.2 µM |  | > 100 µM |  | 30.3 µM |  | 33.8 µM |  |  |  | 41 µM |  | 32.9 µM |  | > 100 µM |  | 
COc1ccc(C(=O)C(C(=O)C(=O)NCCCNC(=O)C(=O)C(C(=O)c2ccc(OC)cc2)c2ccc(OC)cc2)c2ccc(OC)cc2)cc1 (configuration not stated) |  | > 100 µM |  |  |  | > 100 µM |  | > 100 µM |  | > 100 µM |  |  |  | > 100 µM |  | > 100 µM |  | > 100 µM |  | 
CC(=O)C1C(=O)C(=O)N(CCN2C(=O)C(=O)C(C(C)=O)C2=O)C1=O (configuration not stated) |  | > 100 µM |  | > 100 µM |  |  |  | > 100 µM |  | > 100 µM |  |  |  | > 100 µM |  | > 100 µM |  | > 100 µM |  | 
Cc1ccc(-c2nc3sc(C)cn3c2/C=C2\C(=O)Nc3ccc(Cl)cc32)cc1 | 10.3 µM | 22 µM | 16.3 µM | 36 µM | 29.3 µM | 93.6 µM | 17.2 µM | 34.4 µM | 20.6 µM | 48.5 µM | 4.35 µM | 20.1 µM | 15.2 µM | 33.5 µM | 18 µM | 34.5 µM | 7.05 µM | 25.1 µM |  | 
O=C(C(=CN1CCN(C(=O)c2ccco2)C1=S)C(=O)c1ccccc1)c1ccccc1 | 8.23 µM | 19.2 µM |  |  |  |  | 2.63 µM | 20.7 µM | 2.31 µM | 11.5 µM | 7.41 µM | 20.1 µM | 16.2 µM | 41.4 µM | 17.8 µM | > 50 µM | 41.8 µM | > 50 µM | 12.4 µM | > 50 µM
CN(C)N=Nc1ccc(S(N)(=O)=O)cc1 |  | > 100 µM |  | > 100 µM |  | > 100 µM |  | > 100 µM |  | > 100 µM |  |  |  | > 100 µM |  | > 100 µM |  | > 100 µM |  | 
Cc1ccc(S(=O)(=O)C2CC2(Cl)Cl)cc1 (configuration not stated) |  | 43.3 µM |  |  |  | 35 µM |  | 55.4 µM |  | > 100 µM |  |  |  | 41 µM |  | > 100 µM |  | > 100 µM |  | 
CSc1nnc(C(C#N)C#N)nn1 |  | > 100 µM |  | > 100 µM |  | > 100 µM |  | > 100 µM |  | > 100 µM |  |  |  | > 100 µM |  |  |  | > 100 µM |  | 
COc1ccc(-c2c(-c3ccc(C#N)c(F)c3)nc(N3CCC(N)CC3)n(C)c2=O)cc1F | 11.7 µM | 24.7 µM |  |  | 17.6 µM | 53 µM | 21.6 µM | 99.2 µM | 20 µM | 41.5 µM | 12.5 µM | 26.7 µM | 33.6 µM | > 100 µM | 15.3 µM | 29.8 µM | 15.8 µM | 45.8 µM | 25.5 µM | > 100 µM
Cc1ccc(S(=O)(=O)NNS(C)(=O)=O)cc1 |  | > 100 µM |  |  |  | > 100 µM |  | > 100 µM |  | > 100 µM |  |  |  | > 100 µM |  |  |  |  |  | 
Cc1ccc(Nc2nc(-c3ccc(-c4ccc([N+](=O)[O-])cc4)o3)cs2)cc1 |  | > 100 µM |  |  |  |  |  | > 100 µM |  | > 100 µM |  |  |  | > 100 µM |  | > 100 µM |  | > 100 µM |  | 
CCOCCOCCOCCOCCOCCOCCOCCOCCOCCO (tested in a mixture with another compound) | 2.83 µM | 14.4 µM | 1.08 µM | 19.1 µM | 1.06 µM | > 32.5 µM |  |  | 1.2 µM | 4.67 µM |  |  | 0.871 µM | 4.36 µM | 3.1 µM | > 32.5 µM | 3.91 µM | 13.4 µM | 2.6 µM | 15.2 µM

— PubChem BioAssay (NCI)
